One block for each compound: values may come before it.
Tests used:
[1] = cited from earlier work
[2] = biological target: T1, h12/15-LOX (Homo sapiens, UniProt P16050); experiment: Lipoxygenase UV-Vis-based IC50 assay; type: biochemical; conditions: for loss of potency against h12/15-LOX relative to parent: SAR comparison of IC50 values
T1 sequence (P16050 1-662): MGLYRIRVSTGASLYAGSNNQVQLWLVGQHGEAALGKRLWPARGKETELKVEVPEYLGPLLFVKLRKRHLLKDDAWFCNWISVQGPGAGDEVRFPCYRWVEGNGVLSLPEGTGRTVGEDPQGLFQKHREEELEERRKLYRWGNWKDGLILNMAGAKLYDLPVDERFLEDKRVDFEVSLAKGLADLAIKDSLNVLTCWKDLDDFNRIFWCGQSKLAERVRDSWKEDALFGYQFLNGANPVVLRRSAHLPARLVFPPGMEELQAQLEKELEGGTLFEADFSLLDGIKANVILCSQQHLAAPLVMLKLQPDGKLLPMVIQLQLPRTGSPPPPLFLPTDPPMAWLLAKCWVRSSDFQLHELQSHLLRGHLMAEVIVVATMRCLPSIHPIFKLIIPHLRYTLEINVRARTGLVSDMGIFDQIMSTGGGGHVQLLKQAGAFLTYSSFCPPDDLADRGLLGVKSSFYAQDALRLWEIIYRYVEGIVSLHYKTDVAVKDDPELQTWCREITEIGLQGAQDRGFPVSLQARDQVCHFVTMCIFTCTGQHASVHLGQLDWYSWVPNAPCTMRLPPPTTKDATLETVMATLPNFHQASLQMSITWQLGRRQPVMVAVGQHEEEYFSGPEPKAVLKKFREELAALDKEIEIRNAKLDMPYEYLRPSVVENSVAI

[3] = tested on: HT-22 cells; experiment: HT-22 cellular assay; type: cell-based; conditions: Mus musculus, HT-22, read-out: approximate cellular EC50 (ex vivo IC50) in HT-22
[4] = Solubility limit of inhibitor in enzyme assay; type: physicochemical; conditions: concentrations above 35 µM
[5] = biological target: T1, h12/15-LOX; experiment: Pseudoperoxidase assay; conditions: 20 µM inhibitor, 20 µM 13-HpODE, 60 nM enzyme
[6] = biological target: T1, h12/15-LOX; experiment: Steady-state inhibition kinetics
[7] = tested on: rabbit reticulocyte 12/15-LOX; conditions: cited from earlier work
[8] = tested on: dog ortholog of 12/15-LOX; conditions: cited from earlier work
[9] = tested on: rat ortholog of 12/15-LOX; conditions: cited from earlier work
[10] = cited from earlier work; remark: listed apart in the source
[11] = biological target: T2, h5-LOX (Homo sapiens, UniProt P09917); experiment: Selectivity assay; type: biochemical; conditions: read-out: inhibition of h5-LOX (positive control)
T2 sequence (P09917 1-674): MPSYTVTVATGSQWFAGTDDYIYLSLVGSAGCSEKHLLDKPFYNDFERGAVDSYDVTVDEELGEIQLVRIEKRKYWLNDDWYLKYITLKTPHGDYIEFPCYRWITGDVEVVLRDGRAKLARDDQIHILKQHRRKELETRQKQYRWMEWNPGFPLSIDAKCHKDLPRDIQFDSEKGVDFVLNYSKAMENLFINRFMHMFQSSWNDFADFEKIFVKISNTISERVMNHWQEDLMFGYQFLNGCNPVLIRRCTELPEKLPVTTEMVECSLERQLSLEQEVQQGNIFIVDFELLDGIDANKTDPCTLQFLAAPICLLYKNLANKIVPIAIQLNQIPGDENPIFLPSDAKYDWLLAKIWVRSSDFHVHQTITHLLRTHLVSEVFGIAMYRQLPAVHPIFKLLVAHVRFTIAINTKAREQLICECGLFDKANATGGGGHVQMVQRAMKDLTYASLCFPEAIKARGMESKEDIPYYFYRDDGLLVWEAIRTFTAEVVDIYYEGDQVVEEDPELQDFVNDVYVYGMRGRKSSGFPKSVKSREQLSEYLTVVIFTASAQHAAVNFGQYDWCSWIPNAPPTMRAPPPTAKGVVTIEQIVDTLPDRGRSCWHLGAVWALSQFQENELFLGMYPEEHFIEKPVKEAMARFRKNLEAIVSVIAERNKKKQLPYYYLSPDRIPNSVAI

[12] = cited from earlier work; remark: listed apart in the source

Structure (SMILES): O=C(OCC#CCSc1nnc(-c2cccc3ccccc23)o1)c1cccs1 [ML094, 4-(5-(Naphthalen-1-yl)-1,3,4-oxadiazol-2-ylthio)but-2-ynylthiophene-2-carboxylate]
activity in cell-based assays [1]: lacks activity

loss of potency against h12/15-LOX relative to parent [2]: over 10 fold
Structure (SMILES): COc1ccc(C(=O)c2c[nH]nc2-c2cc(C)ccc2O)cc1 [Compound 4]

inhibition at 20 µM ([2]; read-out: %Inhibition (20 µM), 20 µM inhibitor, 10 µM AA, 0.01% Triton X-100): > 90% | EC50 [3]: ~10 µM | solubility in assay buffer [4]: solubility problems | degradation of 13-HpODE (redox activity) [5]: not observed | Ki [6]: 6 ± 3.3 µM | mode of inhibition ([6]; steady-state kinetics): mixed type inhibitor
Structure (SMILES): Cc1ccc(O)c(-c2cc(-c3ccccc3C)[nH]n2)c1 [Compound 99089]

Structure (SMILES): c1ccc2c(c1)SCc1c-2[nH]c2ccccc12 [PD-146176]
IC50 [7]: 810 nM

Structure (SMILES): O=C(Nc1ccc(F)cc1Cl)c1c[nH]nn1 [BLX-2477, N-(2-chloro-4-fluorophenyl)triazole-4-carboxamide]
potency against dog ortholog [8]: did not exhibit potency | potency against rat ortholog [9]: did not exhibit potency | off-target effects in mini-pigs [10]: adverse off-target effects

loss of potency against h12/15-LOX relative to parent [2]: over 10 fold
Structure (SMILES): Cc1ccc(O)c(-c2cc(C(=O)NCc3ccccc3)[nH]n2)c1 [Compound 3]

loss of potency against h12/15-LOX relative to parent [2]: greater than 15 fold
Structure (SMILES): Cc1ccc(-c2cc(-c3ccc(C)cc3O)[nH]n2)cc1 [Compound 18]

inhibition at 20 µM [11]: 97%
Structure (SMILES): CC(c1cc2ccccc2s1)N(O)C(N)=O (stereo not shown) [Zileuton]

Structure (SMILES): CNc1oc(-c2cccc3ccccc23)nc1C#N [ML351, 5-(methylamino)-2-(naphthalene-1-yl)oxazole-4-carbonitrile]
in vivo activity in mice [12]: exhibits in vivo activity

From PMC4778748 (Bioorganic & medicinal chemistry, 2016)
